We go through eleven compounds from patent US10160755B2 (Plexxikon Inc., priority 2015, dated 2018).

The term IC50 denotes the concentration at which inhibition is half-maximal.

Assay [1] addresses T1, BA/F3-FLT3-ITD + F691L cells (Homo sapiens, UniProt P36888, F691L, cells depend on it, form not given).
T1 sequence (P36888 1-993 F691L): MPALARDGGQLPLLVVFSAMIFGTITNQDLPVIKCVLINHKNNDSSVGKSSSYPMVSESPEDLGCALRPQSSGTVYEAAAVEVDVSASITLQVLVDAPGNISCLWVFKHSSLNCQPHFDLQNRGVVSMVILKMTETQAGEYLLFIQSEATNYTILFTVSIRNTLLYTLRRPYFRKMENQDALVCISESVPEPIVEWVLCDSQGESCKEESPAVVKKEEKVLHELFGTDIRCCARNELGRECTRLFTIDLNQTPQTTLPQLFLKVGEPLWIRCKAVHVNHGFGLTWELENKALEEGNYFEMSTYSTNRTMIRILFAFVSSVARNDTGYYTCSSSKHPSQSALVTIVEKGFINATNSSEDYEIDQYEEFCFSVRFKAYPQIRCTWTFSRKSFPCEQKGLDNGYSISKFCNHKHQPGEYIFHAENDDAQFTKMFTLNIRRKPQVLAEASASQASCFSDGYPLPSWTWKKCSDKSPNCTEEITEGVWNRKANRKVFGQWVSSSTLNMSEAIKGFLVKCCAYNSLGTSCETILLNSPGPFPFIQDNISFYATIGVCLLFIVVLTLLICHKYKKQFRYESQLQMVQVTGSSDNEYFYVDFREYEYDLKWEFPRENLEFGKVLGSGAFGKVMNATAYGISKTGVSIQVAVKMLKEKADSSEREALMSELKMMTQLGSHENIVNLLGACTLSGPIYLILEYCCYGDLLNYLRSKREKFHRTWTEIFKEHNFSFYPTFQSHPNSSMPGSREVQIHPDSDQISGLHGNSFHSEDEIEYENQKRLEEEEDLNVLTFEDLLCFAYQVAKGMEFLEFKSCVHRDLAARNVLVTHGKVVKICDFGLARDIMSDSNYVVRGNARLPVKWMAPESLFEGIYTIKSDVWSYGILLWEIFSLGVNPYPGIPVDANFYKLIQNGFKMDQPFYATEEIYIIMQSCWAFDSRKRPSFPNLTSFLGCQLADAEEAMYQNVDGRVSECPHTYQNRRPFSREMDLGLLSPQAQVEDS
In words: BA/F3-FLT3-ITD + F691L cell proliferation assay (CellTiter-Glo). The format is cell-based, murine. The conditions noted are these: BaF3 FLT3 ITD/F691L cells; read-out: Cell Activity (IC50 μM) BaF3_FLT3_ITD/F691L. In short, it runs like this: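 Murine BA/F3 cells transfected with full-length FLT3 carrying ITD plus D835Y or F691L, grown without IL-3 so growth depends on FLT3. Seeded at 1×10^4 cells/well and dosed with 8 points, 10 to 0.0046 μM, 0.2% DMSO, for three days at 37 °C. IC50 from CellTiter-Glo luminescence (ATP content).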
(ATP-based viability assays read luminescence as a measure of living cells.)

The next assay addresses c-Kit (Homo sapiens, UniProt P10721). In words: c-Kit biochemical assay (per US 2007/0032519). In short, it runs like this: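 Biochemical kinase inhibition run per US 2007/0032519; values reported as binned IC50 ranges (0.0001–1 μM, 1–10 μM, 10–200 μM).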

Sequence of c-Kit (P10721 26-976): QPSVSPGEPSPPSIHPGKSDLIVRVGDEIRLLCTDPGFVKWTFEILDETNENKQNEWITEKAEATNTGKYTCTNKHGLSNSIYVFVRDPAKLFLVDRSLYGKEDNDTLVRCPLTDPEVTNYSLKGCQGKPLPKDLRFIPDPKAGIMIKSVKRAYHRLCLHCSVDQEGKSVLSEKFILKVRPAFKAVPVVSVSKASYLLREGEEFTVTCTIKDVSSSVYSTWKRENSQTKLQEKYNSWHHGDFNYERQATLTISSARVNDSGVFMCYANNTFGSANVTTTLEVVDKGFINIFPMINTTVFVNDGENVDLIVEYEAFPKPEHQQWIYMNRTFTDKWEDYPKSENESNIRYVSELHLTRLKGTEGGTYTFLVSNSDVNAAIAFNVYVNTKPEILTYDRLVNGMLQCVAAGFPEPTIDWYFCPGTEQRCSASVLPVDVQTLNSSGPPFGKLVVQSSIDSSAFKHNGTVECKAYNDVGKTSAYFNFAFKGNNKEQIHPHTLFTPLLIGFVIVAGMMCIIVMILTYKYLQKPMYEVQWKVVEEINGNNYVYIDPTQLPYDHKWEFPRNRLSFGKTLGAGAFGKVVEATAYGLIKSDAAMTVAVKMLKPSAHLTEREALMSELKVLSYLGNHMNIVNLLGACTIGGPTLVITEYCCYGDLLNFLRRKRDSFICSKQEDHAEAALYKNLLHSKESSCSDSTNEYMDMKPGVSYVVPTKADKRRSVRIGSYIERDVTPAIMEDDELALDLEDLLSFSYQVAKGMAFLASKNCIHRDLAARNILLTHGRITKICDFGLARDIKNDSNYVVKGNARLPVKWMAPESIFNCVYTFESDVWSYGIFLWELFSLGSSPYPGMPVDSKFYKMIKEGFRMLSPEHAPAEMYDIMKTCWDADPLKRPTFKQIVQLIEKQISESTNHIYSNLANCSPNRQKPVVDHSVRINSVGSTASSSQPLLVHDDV

`Cc1ccc(-c2cnc3[nH]cc(-c4ccc5ncn(C(C)(C)C)c5c4)c3n2)cn1` [P-388, 7-(3-tert-butylbenzimidazol-5-yl)-2-(6-methyl-3-pyridyl)-5H-pyrrolo[2,3-b]pyrazine]: the GI50 in assay [1] fell in the range of 0.0001 to 1 µM. This compound gave an IC50 against c-Kit of 0.0001 to 1 µM.

Turning to `CC(C)(C)n1cnc2ccc(-c3c[nH]c4ncc(-c5ccnc(C#N)c5)nc34)cc21` [P-301, 4-[7-(3-tert-butylbenzimidazol-5-yl)-5H-pyrrolo[2,3-b]pyrazin-2-yl]pyridine-2-carbonitrile], the GI50 in assay [1] was in the range of 0.0001 to 1 µM. This compound registered an IC50 at c-Kit of 10 to 200 µM.

With `CC(C)(O)c1ncc(-c2cnc3[nH]cc(-c4ccc5ncn(C(C)(C)C)c5c4)c3n2)cn1` [P-380, 2-[5-[7-(3-tert-butylbenzimidazol-5-yl)-5H-pyrrolo[2,3-b]pyrazin-2-yl]pyrimidin-2-yl]propan-2-ol], the GI50 in assay [1] is 0.0001 to 1 µM. Besides, at c-Kit, the IC50 lay within 1 to 10 µM.

With `CC(C)(C)n1cnc2ccc(-c3c[nH]c4ncc(-c5cnc(O)nc5)nc34)cc21` [P-363, 5-[7-(3-tert-butylbenzimidazol-5-yl)-5H-pyrrolo[2,3-b]pyrazin-2-yl]pyrimidin-2-ol], the GI50 in assay [1] fell in the range of 0.0001 to 1 µM. For the same compound, the IC50 on c-Kit was in the range of 1 to 10 µM.

On to `CC(C)(C)n1cnc2ccc(-c3c[nH]c4ncc(-c5cnc(F)c(F)c5)nc34)cc21` [P-390, 7-(3-tert-butylbenzimidazol-5-yl)-2-(5,6-difluoro-3-pyridyl)-5H-pyrrolo[2,3-b]pyrazine], for which, in assay [1], the GI50 fell in the range of 0.0001 to 1 µM. For the same compound, the half-inhibitory concentration (IC50) on c-Kit fell in the range of 10 to 200 µM.

Take `COc1ncc(-c2cnc3[nH]cc(-c4ccc5ncn(C(C)(C)C)c5c4)c3n2)cc1C#N` [P-405, 5-[7-(3-tert-butylbenzimidazol-5-yl)-5H-pyrrolo[2,3-b]pyrazin-2-yl]-2-methoxy-pyridine-3-carbonitrile]: the GI50 in assay [1] is 0.0001 to 1 µM. The compound further showed an IC50 against c-Kit of 10 to 200 µM.

Take `CC(C)(C)n1cnc2ccc(-c3c[nH]c4ncc(-c5cnc(C#N)nc5)nc34)cc21` [P-352, 5-[7-(3-tert-butylbenzimidazol-5-yl)-5H-pyrrolo[2,3-b]pyrazin-2-yl]pyrimidine-2-carbonitrile]: in assay [1], the GI50 was in the range of 0.0001 to 1 µM. The same compound registered an IC50 against c-Kit of 10 to 200 µM.

With `COc1cnc2[nH]cc(-c3ccc4ncn(C5CCC5)c4c3)c2c1` [P-061, 1-cyclobutyl-6-(5-methoxy-1H-pyrrolo[2,3-b]pyridin-3-yl)benzimidazole], the GI50 in assay [1] is 0.0001 to 1 µM. Besides, the IC50 at c-Kit was 1 to 10 µM.

For the compound `COc1cnc2[nH]cc(-c3ccc4ncn(C(C)(C)C)c4c3)c2c1` [P-074, 1-tert-butyl-6-(5-methoxy-1H-pyrrolo[2,3-b]pyridin-3-yl)benzimidazole], the GI50 in assay [1] is 0.0001 to 1 µM. Moreover, the concentration for half-maximal inhibition (IC50) on c-Kit is 1 to 10 µM.

As for `COc1cnc2[nH]cc(-c3ccc4ncn(-c5ccccc5)c4c3)c2c1` [P-068, 5-methoxy-3-(3-phenylbenzimidazol-5-yl)-1H-pyrrolo[2,3-b]pyridine], the GI50 in assay [1] was 0.0001 to 1 µM. Further, at c-Kit, the IC50 was in the range of 10 to 200 µM.

For the compound `COc1cc(-c2cc3c(-c4ccc5ncn(C(C)(C)C)c5c4)c[nH]c3nn2)ccn1` [P-315, 5-(3-tert-butylbenzimidazol-5-yl)-3-(2-methoxy-4-pyridyl)-7H-pyrrolo[2,3-c]pyridazine], the GI50 in assay [1] lay in the range of 0.0001 to 1 µM.
